Test system: inflammatory bowel disease (IBD), symptom of diarrhoea
Assay: clinical study in patients with inflammatory bowel disease (IBD): symptom of diarrhoea on subjective 5-point scale
Assay type: in vivo, adult patients
Details: n = 6 IBD patients; for Diarrhoea % improvement relative to the base time / Diarrhoea mean intensity, final: after 4 weeks of daily oral treatment, 250 mg of each active; for Diarrhoea mean intensity, final / Diarrhoea mean intensity, base: scale 0 to 4; for Diarrhoea mean intensity, base: base time before treatment
Description: The clinical study described below was performed with the tablets thus produced.
The study was performed on 18 adult patients of both sexes, divided into three homogeneous groups each of 6 patients, who were suffering from inflammatory bowel disease (IBD) and were treated as follows:
Group 1: 250 mg butyric acid
Group 3: 250 mg butyric acid+250 mg inulin
The active ingredients were transported in tablets which were indistinguishable in shape, size, weight and colour.
The treatments were administered orally daily before the main meal for a period of 4 weeks.
Before the start of the treatment (base time) and then upon completion of the 4 weeks of treatment, each patient was assessed for the presence of the symptom of diarrhoea.
This symptom was quantified, according to its intensity, on a subjective 5-point scale graduated from 0 (absence of indisposition) to 4 (indisposition of considerable gravity). The mean intensity at the base time and at the end of the period of treatment and the percentage of improvement relative to the base time were calculated for this symptom.

Compound	Diarrhoea % improvement relative to the base time	Diarrhoea mean intensity, final	Diarrhoea mean intensity, base
inulin	27%	2.1	2.9
CCCC(=O)O [butyric acid]	44%	1.5	2.7
